According to patent US7534778B2, “(20S)-1α-hydroxy-2-methylene-19-nor-bishomopregnacalciferol and its uses” (Wisconsin Alumni Research Foundation, priority 2001, dated 2009):
pEC50, pKi: −log10 of the molar value. Entries after “also recorded” stand apart in the source; their conditions may differ. Where two headings read alike, the source gives them in different places.

Experiments:
[1] = target: T1, full-length recombinant rat vitamin D receptor (Rattus norvegicus, UniProt P13053); test: competition with [3H]-1,25(OH)2D3 for binding to vitamin D receptor; settings: FIG. 2, read-out: Ki, competition with [3H]-1,25(OH)2D3 for VDR binding
T1 sequence (P13053 1-423): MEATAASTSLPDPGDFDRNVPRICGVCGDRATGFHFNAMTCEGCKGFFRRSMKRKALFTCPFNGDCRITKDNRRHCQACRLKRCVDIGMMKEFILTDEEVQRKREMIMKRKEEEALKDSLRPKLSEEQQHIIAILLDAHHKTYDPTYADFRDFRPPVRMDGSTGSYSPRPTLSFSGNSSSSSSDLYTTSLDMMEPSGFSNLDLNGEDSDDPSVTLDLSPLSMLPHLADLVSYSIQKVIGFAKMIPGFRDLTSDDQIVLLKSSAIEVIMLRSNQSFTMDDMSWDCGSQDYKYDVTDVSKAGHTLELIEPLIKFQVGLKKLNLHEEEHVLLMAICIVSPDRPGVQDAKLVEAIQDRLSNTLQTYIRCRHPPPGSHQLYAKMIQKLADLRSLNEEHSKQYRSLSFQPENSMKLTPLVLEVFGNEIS

HL-60 cells = test: HL-60 cell differentiation into monocytes; assay type: cell-based; settings: FIG. 3; for pEC50: HL-60 cells, read-out: EC50, HL60 differentiation
Protocol: The differentiation of HL-60 promyelocytic into monocytes was determined as described by Ostrem et al (J. Biol. Chem. 262, 14164-14171, 1987).
VDR binding and HL60 cell differentiation.

[2] = system: calcium mobilization from bone; test: bone calcium mobilization in vitamin D-deficient rats on low calcium diet; assay type: in vivo, rat; settings: for bone calcium mobilization activity (serum calcium levels): low calcium diet (0.02%), overall / all dosages, FIG. 4
Protocol: (§1) Calcium mobilization from bone and intestinal calcium absorption in vitamin D-deficient animals. Using vitamin D-deficient rats on a low calcium diet (0.02%), the activities of these compounds in intestine and bone were tested.

[3] = system: intestinal calcium transport; test: intestinal calcium transport, everted gut sac method, vitamin D-deficient rats; assay type: in vivo, rat; settings: for intestinal calcium transport: everted gut sac, vitamin D-deficient rats
Protocol: as §1
Intestinal calcium transport was evaluated in the same groups of animals using the everted gut sac method (FIG. 5).

[4] = serum calcium response in vitamin D-sufficient normal female rats; assay type: in vivo, rat; settings: for serum calcium (hypercalcemia): normal female rats, 5000 pmol/day for 7 days, oral or intraperitoneal, 4 hours after last dose
Protocol: Serum calcium response in vitamin D-sufficient animals on a normal calcium diet. […] The doses were administered to two separate groups of animals by either the oral or intraperitoneal route, and serum calcium levels were assessed 4 hours after the last dose.

[5] = system: porcine intestinal vitamin D receptor; test: binding to porcine intestinal vitamin D receptor; settings: FIG. 2

Compound | pKi [1] | potency on HL-60 differentiation relative to 1,25(OH)2D3 (HL-60 cells) | pEC50 (HL-60 cells; Homo sapiens) | mobilization of bone calcium ([2]; 260 pmol/day for 7 days) | mobilization of bone calcium ([2]; 1300 pmol/day (5-fold)) | bone calcium mobilization activity (serum calcium levels) [2] | intestinal calcium transport ([3]; 260 or 1300 pmol/day) | intestinal calcium transport activity ([3]; overall, dose not stated) | serum calcium (hypercalcemia) [4] | calcemic activity from serum calcium ([4]; rats, chronic doses, FIG. 6) | binding to porcine receptor compared to standard 1,25-(OH)2D3 [5] | pEC50 (HL-60 cells) | intestinal calcium transport ([3]; 260 pmol/day) | intestinal calcium transport activity ([3]; doses higher than 1300 pmol/day)
C=C1[C@H](O)CC(=C/C=C2\CCC[C@]3(C)[C@@H]([C@@H](C)CC)CC[C@@H]23)C[C@H]1O [2-MbisP, (20S)-1α-hydroxy-2-methylene-19-nor-bishomopregnacalciferol] | 9.22 | almost as potent as 1,25(OH)2D3 | 8.15 | did not result in mobilization of bone calcium | without effect | very little bone calcium mobilization activity; also recorded: little, if any, activity in mobilizing calcium from bone | do not promote intestinal calcium transport | very little activity | no increase in serum calcium | very little calcemic activity | bound equally well |  |  | 
C=C1[C@H](O)CC(=C/C=C2\CCC[C@]3(C)[C@@H](CC)CC[C@@H]23)C[C@H]1O [2-Mpregna, 1α-hydroxy-2-methylene-19-nor-pregnacalciferol] | 9.52 |  |  | did not result in mobilization of bone calcium | without effect | little, if any, activity in mobilizing calcium from bone | do not promote intestinal calcium transport |  |  |  |  | 7.77 |  | 
C=C1/C(=C\C=C2/CCC[C@]3(C)[C@@H]([C@H](C)CCCC(C)(C)O)CC[C@@H]23)C[C@@H](O)C[C@@H]1O [1,25(OH)2D3, 1α,25-dihydroxyvitamin D3, reference compound] |  |  |  |  |  | increased serum calcium levels at all dosages |  |  |  |  |  | 8.30 | promotes a significant increase | 
C[C@H](CCCC(C)(C)O)[C@H]1CC[C@H]2/C(=C/C=C3C[C@@H](O)C[C@H](O)C3)CCC[C@]12C [1,25(OH)2 19-nor-D3, 1α,25-dihydroxy-19-nor-vitamin D3, reference compound] | 9.70 |  |  | did not result in mobilization of bone calcium |  |  |  | devoid of intestinal calcium transport activity | produced frank hypercalcemia |  |  | 8.40 |  | 
C=C1C(O)CC(=CC=C2CCCC3(C)C2CCC3C(C)C)CC1O (stereo not drawn) [2-MP, 1α-hydroxy-2-methylene-19-nor-homopregnacalciferol] | 9.52 |  |  | did not result in mobilization of bone calcium | without effect | little, if any, activity in mobilizing calcium from bone | calcium transport activity equivalent to 1,25(OH)2D3 |  |  |  |  | 8.22 |  | decreased this activity
